Measurements reported in patent US20240190860A1, “8-CYCLO-SUBSTITUTED QUINAZOLINE DERIVATIVES AS LPA RECEPTOR 2 INHIBITORS” (CHIESI FARMACEUTICI S.p.A., priority 2021, published 2024).

Biological target: T1, human recombinant LPA2 expressed in CHO cells (Homo sapiens, UniProt Q9HBW0)
T1 construct: expressed in transfected cells; host or cells: CHO cells (CHO-hLPA2 cell line)
Assay: FLIPR calcium mobilization assay, LPA2 antagonism in CHO-hLPA2 cells
Format: cell-based
Settings: CHO-hLPA2 cells, inhibition of LPA EC80 Ca2+ response, 30 min pre-incubation; read-out: LPA2 IC50
Experimental: The effectiveness of compounds of the present invention as LPA2 antagonist can be determined at the human recombinant LPA2 expressed in CHO cells, using a FLIPR assay in 384 well format.
CHO-hLPA2 cell lines are cultured in a humidified incubator at 5% C02 in DMEM/F-12 (1:1) MIXTURE with 2 mM Glutamax, supplemented with 10% of Foetal Bovine Serum, 1 mM Sodium Pyruvate, 11 mM Hepes and 1× Penicillin/Streptomycin. CHO hLPA2 cells are seeded into black walled clear-bottom 384-well plates (#781091, Greiner Bio-One GmbH) at a density of 7,500 cells per well in 50 μl culture media and grown overnight in a 37° C. humidified CO2-incubator. Serial dilutions (1:3 or 1:4, 11 points CRC) of compounds are performed in 100% DMSO at 200× the final concentration. The compounds are diluted 1:50 prior to the experiment with Assay Buffer (20 mM HEPES, 145 mM NaCl, 5 mM KCl, 5.5 mM glucose, 1 mM MgCl2 and 2 mM CaCl2, pH 7.4 containing 0.01% Pluronic F-127) to obtain a solution corresponding to […] the final concentration in the assay (4×, 2% DMSO). The final concentration of DMSO in the assay will be 0.5% in each well. Medium is removed by aspiration and cells are then incubated with 30 μl of a loading solution containing 5 μM of the cytoplasmic Ca2+ indicator Cal-520 AM in Assay Buffer containing 2.5 mM probenecid for 30 min at 37° C. incubator (cell loading). The loaded cell plates are transferred into the FLIPR instrument and calcium responses are monitored during the on-line addition protocols. For testing of compounds, after the cell loading, 10 μl/well of 4× antagonists' solution was added onto the cells. After 30 min pre-incubation (at 37° C.), 10 μl/well of 5× concentrated LPA EC80 was added and Ca2+ mobilization responses was followed during the on-line addition protocol. Intracellular peak fluorescence values subtracted by baseline fluorescence are exported and analysed to determine IC50 values, respectively. The calcium response is expressed as percentage of the maximal inhibition of the EC80 agonist response.
The raw data (peak height expressed as relative fluorescence units) are normalized and transformed into “percent of inhibition”. Curve fitting and pIC50 (−LogIC50) estimations are carried out using a four-parameter logistic model using XLfit Software.

T1 sequence (Q9HBW0 whole entry): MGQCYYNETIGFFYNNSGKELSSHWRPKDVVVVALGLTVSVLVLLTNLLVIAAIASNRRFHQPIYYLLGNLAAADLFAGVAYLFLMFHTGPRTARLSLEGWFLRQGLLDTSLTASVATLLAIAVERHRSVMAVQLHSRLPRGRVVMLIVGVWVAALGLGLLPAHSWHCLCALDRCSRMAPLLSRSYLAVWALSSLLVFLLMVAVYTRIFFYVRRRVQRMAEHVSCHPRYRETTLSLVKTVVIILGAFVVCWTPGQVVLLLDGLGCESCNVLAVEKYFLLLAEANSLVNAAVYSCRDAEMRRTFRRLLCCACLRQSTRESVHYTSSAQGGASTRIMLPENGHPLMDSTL

IC50, 10 to 100 nM:
C[C@@H](CN1CCN(S(=O)(=O)c2ccccc2)CC1)Nc1ncnc2c(-c3cn(C)nc3C(F)(F)F)cccc12 [Example 88, N-[(2S)-1-[4-(benzenesulfonyl)piperazin-1-yl]propan-2-yl]-8-[1-methyl-3-(trifluoromethyl)-1H-pyrazol-4-yl]quinazolin-4-amine]
COC(=O)Nc1nc(C)c(S(=O)(=O)N2CCN(C[C@H](C)Nc3ncnc4c(-c5ccc(F)c(Cl)n5)cccc34)CC2)s1 [Example 74, methyl N-[5-({4-[(2S)-2-{[8-(6-chloro-5-fluoropyridin-2-yl)quinazolin-4-yl]amino}propyl]piperazin-1-yl}sulfonyl)-4-methyl-1,3-thiazol-2-yl]carbamate]

IC50, < 10 nM:
Cc1ccc(-c2cccc3c(N[C@@H](C)CN4CCN(S(=O)(=O)c5ccc(-c6cc(C)no6)s5)CC4)ncnc23)cn1 [Example 85, N-[(2S)-1-(4-{[5-(3-methyl-1,2-oxazol-5-yl)thiophen-2-yl]sulfonyl}piperazin-1-yl)propan-2-yl]-8-(6-methylpyridin-3-yl)quinazolin-4-amine]
C[C@@H](CN1CCN(S(=O)(=O)c2ccc(Cl)c(Cl)c2)CC1)Nc1ncnc2c(-c3cccc(CN(C)C)c3)cccc12 [Example 46, N-[(2S)-1-[4-(3,4-dichlorobenzenesulfonyl)piperazin-1-yl]propan-2-yl]-8-{3-[(dimethylamino)methyl]phenyl}quinazolin-4-amine]
COC(=O)Nc1nc(C)c(S(=O)(=O)N2CCN(C[C@H](C)Nc3ncnc4c(-c5c(C)noc5C)cccc34)CC2)s1 [Example 10, methyl N-[5-({4-[(2S)-2-{[8-(3,5-dimethyl-1,2-oxazol-4-yl)quinazolin-4-yl]amino}propyl]piperazin-1-yl}sulfonyl)-4-methyl-1,3-thiazol-2-yl]carbamate]
COC(=O)Nc1nc(C)c(S(=O)(=O)N2CCN(C[C@H](C)Nc3ncnc4c(-c5cncc(N6CCN(C)CC6)c5)cccc34)CC2)s1 [Example 67, methyl N-[4-methyl-5-({4-[(2S)-2-({8-[5-(4-methylpiperazin-1-yl)pyridin-3-yl]quinazolin-4-yl}amino)propyl]piperazin-1-yl}sulfonyl)-1,3-thiazol-2-yl]carbamate]
CC(=O)Nc1nc(C)c(S(=O)(=O)N2CCN(C[C@H](C)Nc3ncnc4c(-c5cccnc5)cccc34)CC2)s1 [Example 32, N-[4-methyl-5-({4-[(2S)-2-{[8-(pyridin-3-yl)quinazolin-4-yl]amino}propyl]piperazin-1-yl}sulfonyl)-1,3-thiazol-2-yl]acetamide]
COC(=O)Nc1nc(C)c(S(=O)(=O)N2CCN(C[C@H](C)Nc3ncnc4c(-c5cncnc5)cccc34)CC2)s1 [Example 40, methyl N-[4-methyl-5-({4-[(2S)-2-{[8-(pyrimidin-5-yl)quinazolin-4-yl]amino}propyl]piperazin-1-yl}sulfonyl)-1,3-thiazol-2-yl]carbamate]
Cc1cc(-c2ccc(S(=O)(=O)N3CCN(C[C@H](C)Nc4ncnc5c(N6CCCC6)cccc45)CC3)s2)on1 [Example 20, N-[(2S)-1-(4-{[5-(3-methyl-1,2-oxazol-5-yl)thiophen-2-yl]sulfonyl}piperazin-1-yl)propan-2-yl]-8-(pyrrolidin-1-yl)quinazolin-4-amine]
COC(=O)Nc1nc(C)c(S(=O)(=O)N2CCN(C[C@H](C)Nc3ncnc4c(-c5cccc(CN6CCCC6)c5)cccc34)CC2)s1 [Example 22, methyl N-[4-methyl-5-({4-[(2S)-2-[(8-{3-[(pyrrolidin-1-yl)methyl]phenyl}quinazolin-4-yl)amino]propyl]piperazin-1-yl}sulfonyl)-1,3-thiazol-2-yl]carbamate]
COC(=O)Nc1ncc(S(=O)(=O)N2CCN(C[C@H](C)Nc3ncnc4c(-c5cccc(CN(C)C)c5)cccc34)CC2)s1 [Example 75, methyl N-[5-({4-[(2S)-2-[(8-{3-[(dimethylamino)methyl]phenyl}quinazolin-4-yl)amino]propyl]piperazin-1-yl}sulfonyl)-1,3-thiazol-2-yl]carbamate]
